“Also recorded” adds a separate entry of the source. Blank lines part the entries; values can stand above or below the compound they belong to.
Experiments:
[1] = tested on: lactate dehydrogenase (LDH); assay: LDH assay (kit, recombinant enzyme); format: biochemical; settings: at concentrations consistent with the PHGDH IC50 / drug concentrations used in cells
Description: (§1) Enzyme activities were assayed using kits (LDH: Sigma MAK06; MDH1: Sigma MAK196-1KT) according to the manufacturer's instructions with commercially available recombinant enzyme (LDH: Sigma 59747; MDH1: Sigma SRP6103).

[2] = tested on: MDA-MB-468, MDA-MB-436, HCC70, and Hs578T; assay: cells; settings: read-out: growth inhibition
Description: (§2) Cells were plated at a low density in 96 or 24 well plates in serine containing media. The following day, media was aspirated, cells were washed with PBS, and fresh serine replete or deplete media containing drug (15 μM, 30 μM) or vehicle (DMSO) was added. Cells were grown for 3 to 5 days, with drug and media changed daily before assaying relative cell numbers.

MCF7 cells = assay: Proliferation assay, MCF7; format: cell-based
Description: as §2

[3] = tested on: MDA-MB-468 (468) breast cancer cells; assay: LC-MS/MS metabolite profiling versus PHGDH knockdown; format: cell-based; settings: 30 μM, 24 hours
Description: MDA-MB-468 (468) breast cancer cells (PHGDH amplified) were grown in DMEM supplemented with FBS (10%), penicillin, and streptomycin. 468 cells stably expressing PHGDH knockdown constructs were generated by infecting 468 cells with lentivirus harboring pLKO.1 shRNAs against PHGDH (sh29) or (sh31) and a nontargeting control (shGFP). Following infections, cells were selected for 2 days using puromycin prior to seeding in 10 cm plates for the experiment. PHGDH knockdown cells (sh29 and sh31) were seeded in 10 cm plates, each in triplicate, and shGFP cells in sextuplet. […] After 24 hours of treatment, the media were aspirated, and cells were washed with cold PBS prior to flash freezing. Subsequently, polar metabolites were extracted with 80% methanol for 30 minutes, scraped, transferred to Eppendorf tubes, centrifuged to remove insoluble matter, and dried. […] Briefly, samples were injected and analyzed using a 5500 QTRAP triple quadrupole mass spectrometer (AB/Sciex) coupled to a Prominence UFLC system (Shimadzu). Approximately 250 metabolites were analyzed by single reaction monitoring (SRM).

PHGDH [4] = biological target: T1, PHGDH (Homo sapiens, UniProt O43175); assay: PHGDH assay (NADH fluorescence, PSAT1 coupled); format: biochemical; parameters: His6; made in house; host or cells: BL21 E. coli
T1 sequence (O43175 1-533): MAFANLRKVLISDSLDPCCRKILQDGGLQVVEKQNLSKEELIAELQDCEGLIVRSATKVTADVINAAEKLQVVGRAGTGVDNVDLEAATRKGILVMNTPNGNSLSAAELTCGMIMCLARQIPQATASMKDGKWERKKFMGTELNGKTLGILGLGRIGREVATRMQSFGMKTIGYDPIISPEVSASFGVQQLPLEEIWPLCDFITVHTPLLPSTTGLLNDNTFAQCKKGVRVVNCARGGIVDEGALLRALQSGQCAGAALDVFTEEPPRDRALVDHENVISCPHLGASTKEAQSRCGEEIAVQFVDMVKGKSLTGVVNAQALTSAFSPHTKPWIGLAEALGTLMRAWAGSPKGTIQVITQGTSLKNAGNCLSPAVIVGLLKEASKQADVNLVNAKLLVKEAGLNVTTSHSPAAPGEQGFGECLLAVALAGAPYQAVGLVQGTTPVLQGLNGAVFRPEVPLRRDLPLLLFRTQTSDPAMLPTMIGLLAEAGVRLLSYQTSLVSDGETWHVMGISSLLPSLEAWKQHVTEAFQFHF
Description: (§3) PHGDH activity was measured in 96-well plates by monitoring NADH fluorescence (Ex340 nm/Em460 nm) over time. PSAT1 was included to prevent product inhibition of PHGDH.

MDH1 = biological target: T2, MDH1 (Homo sapiens, UniProt P40925); assay: MDH1 assay (kit, recombinant enzyme); format: biochemical; settings: at concentrations consistent with the PHGDH IC50
T2 construct: purchased Sigma SRP6103
T2 sequence (P40925 1-334): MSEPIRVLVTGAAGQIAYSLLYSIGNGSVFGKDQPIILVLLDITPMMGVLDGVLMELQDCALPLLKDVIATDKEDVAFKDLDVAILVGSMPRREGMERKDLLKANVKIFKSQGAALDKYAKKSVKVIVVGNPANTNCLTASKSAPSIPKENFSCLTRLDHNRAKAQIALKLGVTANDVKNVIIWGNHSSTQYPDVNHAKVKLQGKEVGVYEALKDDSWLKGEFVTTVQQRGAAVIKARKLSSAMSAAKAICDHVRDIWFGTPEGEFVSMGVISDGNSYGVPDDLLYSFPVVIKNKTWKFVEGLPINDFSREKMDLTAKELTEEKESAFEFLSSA
Description: as §1

cells = assay: Acute drug treatment with 13C6-glucose tracing (GCMS, LC-MS/MS); format: cell-based; settings: LC-MS/MS, greater panel of metabolites
Description: (§4) Carney cells acclimated to growth in MEM (Corning) were plated at 9×10^5 cells per 6 cm dish the night before. The following morning, media was replaced with fresh media containing (1) (1 μM, 15 μM, 30 μM) or vehicle control (DMSO) for 1h. Media was then aspirated, cells were washed with PBS, and fresh glucose free MEM (Gibco) supplemented with ^13C6-glucose (3 g/L, Cambridge Isotopes) and 10% dialyzed FBS containing drug or DMSO was added. After 2h, cells were quickly washed with cold PBS on ice and flash frozen. Polar metabolites were extracted as in the GCMS methods.
(§5) Polar metabolites were extracted with 2 ml MeOH/H2O (4:1) for 30 min on dry ice, scraped, transferred to 2 ml tubes, centrifuged (30 min, 15000 rpm), and the supernatants dried under vacuum. Samples were derivatized as previously described and analyzed on an Agilent 6890 GC instrument. Metabolite quantification was inferred from a standard curve and fractional enrichment of ^13C in metabolites was corrected for the natural abundance of ^13C and ^15N.
(§6) Polar metabolites were extracted and dried as in the GCMS method. Samples were resuspended in 15 μl of HPLC grade water. 5 μl of each sample was injected and analyzed using a 5500 QTRAP triple quadrupole mass spectrometer (AB/Sciex) coupled to a Prominence UFLC system (Shimadzu) as reported previously.
(§7) Newly synthesized serine has a mass-shift of 3 (M+3) due to the incorporation of glucose-derived ^13C via 3-PG. The kinetics of serine labeling were investigated.

Carney cells = assay: as above; format: cell-based; settings: acute treatment; for serine labeling: dose response
Description: as §4, §5, §6, §7

[5] = biological target: truncated form of PHGDH, which lacks the C-terminal domain (Homo sapiens, UniProt O43175)
Description: as §3

LDH = assay: Cross-linking assay, LDH; settings: BS3 cross-linking, SDS-PAGE
Description: (§8) Samples were run on SDS-PAGE and colloidal coomassie stained (Bio-Rad).

PHGDH [6] = biological target: T1, PHGDH; settings: BS3 cross-linking, SDS-PAGE
Description: as §8

MDA-MB-468 cells = assay: Proliferation assay, MDA-MB-468; format: cell-based
Description: as §2

SMILES: CCOC(=O)c1sc(NC(=O)c2ccco2)c(SC#N)c1C [Compound (1), Ethyl 5-(furan-2-carboxamido)-3-methyl-4-thiocyanatothiophene-2-carboxylate]
effect on lactate dehydrogenase (LDH) [1]: no effect; also recorded: does not inhibit
inhibition at 30 µM [2]: 35 to 60%
sensitivity of proliferation to drug (MCF7 cells; serine deplete conditions): partially sensitive
sensitivity of proliferation to drug (MCF7 cells; serine replete conditions): insensitive
purine metabolites (AMP, dAMP, IMP, GDP, dGDP, GMP levels) [3]: down regulated
decrease of intracellular serine levels ([3]; normalized to control treatment): 50%
time dependence of onset of inhibition (PHGDH [4]; increasing pre-incubation time of drug and PHGDH): progressively more potent
mode of inhibition (PHGDH [4]; with respect to both substrates, decreasing Vmax): non-competitive
effect on MDH1 (MDH1): no effect
glycolytic metabolites (cells): unperturbed
serine labeling (Carney cells; 15 μM): trended towards a decrease
serine labeling (Carney cells; 30 μM): significantly decreased
perturbations in labeling (3-PG, pyruvate, lactate versus serine) (Carney cells; GCMS): specific to serine
inhibition of truncated PHGDH [5]: still inhibited
LDH oligomerization state (LDH): No such effect
PHGDH oligomerization state (PHGDH [6]): shifted the PHGDH equilibrium from the tetrameric to the dimeric state

potency against and selectivity for PHGDH, acid derivative versus parent (PHGDH [4]; in vitro): equally potent
SMILES: Cc1c(C(=O)O)sc(NC(=O)c2ccco2)c1SC#N [carboxylic acid derivative, 5-(furan-2-carboxamido)-3-methyl-4-thiocyanatothiophene-2-carboxylic Acid]
effect on proliferation (MDA-MB-468 cells): not effective
